Measured values taken from patent US7183277B2, “Carboxylic acid amides” (Merck Patent GmbH, priority 2002, dated 2007).
pIC50: −log10 of the molar value. Where a name gives a salt, the structure may show the parent alone.

What was measured:
FXa = FXa (Homo sapiens, UniProt P00742); assay: Factor Xa inhibition (FXa-IC50); format: biochemical
Text: The inhibition of factor Xa by the compounds according to the invention and the measurement of the anticoagulant and antithrombotic activity can be determined by conventional in-vitro or in-vivo methods. A suitable method is described, for example, by J. Hauptmann et al. in Thrombosis and Haemostasis 1990, 63, 220–223.
The inhibition of factor Xa can be measured, for example, by the method of T. Hara et al. in Thromb. Haemostas. 1994, 71, 314–319.

TF/FVIIa = TF/FVIIa (Homo sapiens, UniProt P08709); assay: TF/FVIIa inhibition (TF/FVIIa-IC50); format: biochemical
Text: The inhibition of factor VIIa by the compounds according to the invention and the measurement of the anticoagulant and antithrombotic activity can be determined by conventional in-vitro or in-vivo methods. A conventional method for the measurement of the inhibition of factor VIIa is described, for example, by H. F. Ronning et al. in Thrombosis Research 1996, 84, 73–81.

Chain of TF/FVIIa (P08709 213-466 limits assumed): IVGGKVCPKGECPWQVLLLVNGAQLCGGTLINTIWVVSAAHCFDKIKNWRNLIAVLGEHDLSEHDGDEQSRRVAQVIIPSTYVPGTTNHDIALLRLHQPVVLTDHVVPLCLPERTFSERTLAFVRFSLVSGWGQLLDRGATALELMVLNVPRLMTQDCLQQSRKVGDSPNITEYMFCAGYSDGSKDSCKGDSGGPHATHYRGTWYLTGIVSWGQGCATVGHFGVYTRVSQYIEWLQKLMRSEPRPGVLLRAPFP
Chain of TF/FVIIa (P08709 61-212 partner limits assumed): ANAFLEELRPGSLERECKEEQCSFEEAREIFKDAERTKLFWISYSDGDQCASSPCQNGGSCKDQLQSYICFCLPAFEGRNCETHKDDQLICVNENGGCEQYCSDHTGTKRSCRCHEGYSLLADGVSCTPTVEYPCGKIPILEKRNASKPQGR
Chain of TF/FVIIa (P13726 33-295 partner): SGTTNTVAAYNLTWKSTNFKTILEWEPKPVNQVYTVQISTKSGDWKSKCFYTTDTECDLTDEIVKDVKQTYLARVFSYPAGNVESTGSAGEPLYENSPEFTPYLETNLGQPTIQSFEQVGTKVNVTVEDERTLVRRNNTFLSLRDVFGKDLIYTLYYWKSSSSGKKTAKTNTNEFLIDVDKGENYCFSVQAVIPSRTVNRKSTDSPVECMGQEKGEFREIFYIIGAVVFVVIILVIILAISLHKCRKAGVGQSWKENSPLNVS
Chain of FXa (P00742 235-488 limits assumed): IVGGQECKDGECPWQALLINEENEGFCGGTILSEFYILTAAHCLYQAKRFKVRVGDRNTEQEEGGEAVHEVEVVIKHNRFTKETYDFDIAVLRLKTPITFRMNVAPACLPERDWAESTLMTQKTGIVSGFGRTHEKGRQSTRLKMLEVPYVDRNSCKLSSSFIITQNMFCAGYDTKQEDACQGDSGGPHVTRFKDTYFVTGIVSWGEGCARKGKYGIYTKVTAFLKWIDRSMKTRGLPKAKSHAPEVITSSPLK
Chain of FXa (P00742 41-179 partner limits assumed): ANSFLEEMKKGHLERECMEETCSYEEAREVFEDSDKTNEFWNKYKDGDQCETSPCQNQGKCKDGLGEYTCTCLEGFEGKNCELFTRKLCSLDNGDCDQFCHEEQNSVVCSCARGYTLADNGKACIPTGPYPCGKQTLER

Row | pIC50 (FXa) | pIC50 (TF/FVIIa) | Structure (SMILES)
1 | 6.66 | 6.54 | CON=C1CCCCN1c1ccc(NC(=O)[C@H](OC(=O)Nc2ccc(Cl)cc2)c2ccccc2)cc1 [AA, (R)-2-[N-(4-chlorophenyl)carbamoyloxy]-N-[4-(2-methoxyiminopiperidin-1-yl)phenyl]-2-phenylacetamide]
2 | 7.24 | 7.00 | N=C1CCCCN1c1ccc(NC(=O)[C@H](OC(=O)Nc2ccc(Cl)cc2)c2ccccc2)cc1 [AB, (R)-2-[N-(4-chlorophenyl)carbamoyloxy]-N-[4-(2-iminopiperidin-1-yl)phenyl]-2-phenylacetamid, hydrochloride]
3 | 6.17 | 6.31 | Cc1cc(NC(=O)[C@H](NC(=O)Nc2ccc(Cl)cc2)c2ccccc2)ccc1N1CCCC1=N [BA, (R)-2-[3-(4-chlorophenyl)ureido]-N-[4-(2-iminopyrrolidin-1-yl)-3-methylphenyl]-2-phenylacetamide, hydrochloride]
4 | 7.27 |  | N#CN=C1NCCN1c1ccc(NC(=O)[C@@H](NC(=O)Nc2ccc(Cl)cc2)c2cccs2)cc1 [CA, (R)-2-[3-(4-chlorophenyl)ureido]-N-[4-(2-cyaniminoimidazolidin-1-yl)phenyl]-2-thiophen-2-ylacetamide]
